Results from ChEMBL document CHEMBL1909046, “DrugMatrix in vitro pharmacology data”.

System: not listed separately
Experiment: DRUGMATRIX: Calcium Channel Type L, Dihydropyridine radioligand binding (ligand: [3H] Nitrendipine)
Type: cell membranes, Rattus norvegicus, Wistar, Cerebral cortex, Membrane
Conditions: Not Active = under 50% inhibition at 10 µM

Compound | IC50 | Ki
O=c1[nH]c(=O)n([C@H]2C[C@H](O)[C@@H](CO)O2)cc1F [FLOXURIDINE] | Not Active | Not Active
COC(=O)Nc1nc2cc(C(=O)c3ccc(F)cc3)ccc2[nH]1 [FLUBENDAZOLE] | Not Active | Not Active
CC(=O)OCC(=O)[C@@]1(O)CC[C@H]2[C@@H]3CCC4=CC(=O)CC[C@]4(C)[C@@]3(F)[C@@H](O)C[C@@]21C [FLUDROCORTISONE ACETATE] | Not Active | Not Active
CCOC(=O)c1ncn2c1CN(C)C(=O)c1cc(F)ccc1-2 [FLUMAZENIL] | Not Active | Not Active
CC(=O)OCC(=O)[C@@]12OC(C)(C)O[C@@H]1C[C@H]1[C@@H]3C[C@H](F)C4=CC(=O)C=C[C@]4(C)[C@@]3(F)[C@@H](O)C[C@@]12C [FLUOCINONIDE] | Not Active | Not Active

Target: T1, Neutrophil elastase (Homo sapiens, UniProt P08246);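 note: inhibition of neutrophil elastase enzyme activity, measured with a p-nitroanilide-linked peptide substrate; in other assays of this panel Not Active means under 50% inhibition at 10 µM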
T1 sequence (P08246 whole entry): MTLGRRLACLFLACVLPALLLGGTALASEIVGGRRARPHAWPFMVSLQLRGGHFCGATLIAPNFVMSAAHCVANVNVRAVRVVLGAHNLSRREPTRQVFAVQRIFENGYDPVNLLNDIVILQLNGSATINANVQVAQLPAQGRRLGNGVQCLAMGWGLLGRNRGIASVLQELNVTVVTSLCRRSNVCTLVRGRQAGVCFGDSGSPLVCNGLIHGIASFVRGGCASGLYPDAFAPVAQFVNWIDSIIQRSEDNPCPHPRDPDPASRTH
Type: tissue-based
Conditions: not given

Compound | IC50
O=c1[nH]c(=O)n([C@H]2C[C@H](O)[C@@H](CO)O2)cc1F [FLOXURIDINE] | Not Active
COC(=O)Nc1nc2cc(C(=O)c3ccc(F)cc3)ccc2[nH]1 [FLUBENDAZOLE] | Not Active
CC(=O)OCC(=O)[C@@]1(O)CC[C@H]2[C@@H]3CCC4=CC(=O)CC[C@]4(C)[C@@]3(F)[C@@H](O)C[C@@]21C [FLUDROCORTISONE ACETATE] | Not Active
CCOC(=O)c1ncn2c1CN(C)C(=O)c1cc(F)ccc1-2 [FLUMAZENIL] | Not Active
CC(=O)OCC(=O)[C@@]12OC(C)(C)O[C@@H]1C[C@H]1[C@@H]3C[C@H](F)C4=CC(=O)C=C[C@]4(C)[C@@]3(F)[C@@H](O)C[C@@]12C [FLUOCINONIDE] | Not Active

Target: Sigma non-opioid intracellular receptor 1 (Homo sapiens, UniProt Q99720)
Sequence (Q99720 whole entry): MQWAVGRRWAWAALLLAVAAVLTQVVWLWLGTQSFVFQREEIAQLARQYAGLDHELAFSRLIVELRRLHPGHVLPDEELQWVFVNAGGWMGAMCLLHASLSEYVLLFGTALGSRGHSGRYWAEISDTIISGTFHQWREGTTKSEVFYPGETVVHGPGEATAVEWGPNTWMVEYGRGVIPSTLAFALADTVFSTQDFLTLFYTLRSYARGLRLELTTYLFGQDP
Experiment: DRUGMATRIX: Sigma1 radioligand binding (ligand: [3H] Haloperidol)
Type: cell membranes, Jurkat, Membrane
Conditions: jurkat; Not Active = under 50% inhibition at 10 µM

Compound | IC50
O=c1[nH]c(=O)n([C@H]2C[C@H](O)[C@@H](CO)O2)cc1F [FLOXURIDINE] | Not Active
COC(=O)Nc1nc2cc(C(=O)c3ccc(F)cc3)ccc2[nH]1 [FLUBENDAZOLE] | Not Active
CC(=O)OCC(=O)[C@@]1(O)CC[C@H]2[C@@H]3CCC4=CC(=O)CC[C@]4(C)[C@@]3(F)[C@@H](O)C[C@@]21C [FLUDROCORTISONE ACETATE] | Not Active
CCOC(=O)c1ncn2c1CN(C)C(=O)c1cc(F)ccc1-2 [FLUMAZENIL] | Not Active
CC(=O)OCC(=O)[C@@]12OC(C)(C)O[C@@H]1C[C@H]1[C@@H]3C[C@H](F)C4=CC(=O)C=C[C@]4(C)[C@@]3(F)[C@@H](O)C[C@@]12C [FLUOCINONIDE] | Not Active

Target: C-C chemokine receptor type 5 (Homo sapiens, UniProt P51681); note: in other assays of this panel Not Active means under 50% inhibition at 10 µM
Sequence (P51681 whole entry): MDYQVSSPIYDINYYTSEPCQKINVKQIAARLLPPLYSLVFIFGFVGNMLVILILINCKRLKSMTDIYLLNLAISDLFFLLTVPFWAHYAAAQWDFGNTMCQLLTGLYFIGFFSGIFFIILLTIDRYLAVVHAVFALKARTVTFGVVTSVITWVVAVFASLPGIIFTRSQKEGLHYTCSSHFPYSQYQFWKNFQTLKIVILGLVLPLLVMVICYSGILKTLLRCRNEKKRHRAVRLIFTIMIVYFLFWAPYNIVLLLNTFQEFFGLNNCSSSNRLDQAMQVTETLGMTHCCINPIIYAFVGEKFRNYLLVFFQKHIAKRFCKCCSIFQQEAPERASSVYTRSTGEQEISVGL
Type: cell membranes, Membrane
Conditions: hek293

Compound | IC50
O=c1[nH]c(=O)n([C@H]2C[C@H](O)[C@@H](CO)O2)cc1F [FLOXURIDINE] | Not Active
COC(=O)Nc1nc2cc(C(=O)c3ccc(F)cc3)ccc2[nH]1 [FLUBENDAZOLE] | Not Active
CC(=O)OCC(=O)[C@@]1(O)CC[C@H]2[C@@H]3CCC4=CC(=O)CC[C@]4(C)[C@@]3(F)[C@@H](O)C[C@@]21C [FLUDROCORTISONE ACETATE] | Not Active
CCOC(=O)c1ncn2c1CN(C)C(=O)c1cc(F)ccc1-2 [FLUMAZENIL] | Not Active
CC(=O)OCC(=O)[C@@]12OC(C)(C)O[C@@H]1C[C@H]1[C@@H]3C[C@H](F)C4=CC(=O)C=C[C@]4(C)[C@@]3(F)[C@@H](O)C[C@@]12C [FLUOCINONIDE] | Not Active

Target: T2, Neuropeptide Y receptor type 2 (Homo sapiens, UniProt P49146); note: in other assays of this panel Not Active means under 50% inhibition at 10 µM
T2 sequence (P49146 whole entry): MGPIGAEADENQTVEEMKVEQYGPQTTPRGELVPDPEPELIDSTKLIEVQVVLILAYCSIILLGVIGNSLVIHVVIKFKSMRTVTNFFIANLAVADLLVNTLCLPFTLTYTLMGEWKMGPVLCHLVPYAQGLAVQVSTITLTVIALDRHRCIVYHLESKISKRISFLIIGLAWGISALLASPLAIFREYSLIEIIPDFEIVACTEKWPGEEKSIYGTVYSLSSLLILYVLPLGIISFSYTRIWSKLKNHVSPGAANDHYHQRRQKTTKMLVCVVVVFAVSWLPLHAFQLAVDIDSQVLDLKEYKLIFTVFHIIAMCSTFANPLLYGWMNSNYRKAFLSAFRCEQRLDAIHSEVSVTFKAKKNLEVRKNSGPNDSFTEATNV
Type: cell membranes, Membrane
Conditions: kan-ts

Compound | IC50
O=c1[nH]c(=O)n([C@H]2C[C@H](O)[C@@H](CO)O2)cc1F [FLOXURIDINE] | Not Active
COC(=O)Nc1nc2cc(C(=O)c3ccc(F)cc3)ccc2[nH]1 [FLUBENDAZOLE] | Not Active
CC(=O)OCC(=O)[C@@]1(O)CC[C@H]2[C@@H]3CCC4=CC(=O)CC[C@]4(C)[C@@]3(F)[C@@H](O)C[C@@]21C [FLUDROCORTISONE ACETATE] | Not Active
CCOC(=O)c1ncn2c1CN(C)C(=O)c1cc(F)ccc1-2 [FLUMAZENIL] | Not Active
CC(=O)OCC(=O)[C@@]12OC(C)(C)O[C@@H]1C[C@H]1[C@@H]3C[C@H](F)C4=CC(=O)C=C[C@]4(C)[C@@]3(F)[C@@H](O)C[C@@]12C [FLUOCINONIDE] | Not Active

Target: T3, C-X-C chemokine receptor type 2 (Homo sapiens, UniProt P25025); note: in other assays of this panel Not Active means under 50% inhibition at 10 µM
T3 sequence (P25025 whole entry): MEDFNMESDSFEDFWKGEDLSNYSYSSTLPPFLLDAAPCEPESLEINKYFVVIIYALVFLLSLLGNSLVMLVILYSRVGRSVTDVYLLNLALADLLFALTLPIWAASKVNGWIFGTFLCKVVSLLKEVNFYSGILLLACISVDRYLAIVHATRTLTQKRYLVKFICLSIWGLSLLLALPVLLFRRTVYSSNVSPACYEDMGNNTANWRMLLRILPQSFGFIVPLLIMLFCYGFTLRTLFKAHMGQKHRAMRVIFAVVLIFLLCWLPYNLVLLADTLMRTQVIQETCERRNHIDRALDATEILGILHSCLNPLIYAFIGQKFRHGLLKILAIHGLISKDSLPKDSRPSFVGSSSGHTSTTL
Type: cell membranes, Membrane
Conditions: cho-k1

Compound | IC50
O=c1[nH]c(=O)n([C@H]2C[C@H](O)[C@@H](CO)O2)cc1F [FLOXURIDINE] | Not Active
COC(=O)Nc1nc2cc(C(=O)c3ccc(F)cc3)ccc2[nH]1 [FLUBENDAZOLE] | Not Active
CC(=O)OCC(=O)[C@@]1(O)CC[C@H]2[C@@H]3CCC4=CC(=O)CC[C@]4(C)[C@@]3(F)[C@@H](O)C[C@@]21C [FLUDROCORTISONE ACETATE] | Not Active
CCOC(=O)c1ncn2c1CN(C)C(=O)c1cc(F)ccc1-2 [FLUMAZENIL] | Not Active
CC(=O)OCC(=O)[C@@]12OC(C)(C)O[C@@H]1C[C@H]1[C@@H]3C[C@H](F)C4=CC(=O)C=C[C@]4(C)[C@@]3(F)[C@@H](O)C[C@@]12C [FLUOCINONIDE] | Not Active

Target: T4, Nitric oxide synthase, inducible (Mus musculus, UniProt P29477)
T4 sequence (P29477 whole entry): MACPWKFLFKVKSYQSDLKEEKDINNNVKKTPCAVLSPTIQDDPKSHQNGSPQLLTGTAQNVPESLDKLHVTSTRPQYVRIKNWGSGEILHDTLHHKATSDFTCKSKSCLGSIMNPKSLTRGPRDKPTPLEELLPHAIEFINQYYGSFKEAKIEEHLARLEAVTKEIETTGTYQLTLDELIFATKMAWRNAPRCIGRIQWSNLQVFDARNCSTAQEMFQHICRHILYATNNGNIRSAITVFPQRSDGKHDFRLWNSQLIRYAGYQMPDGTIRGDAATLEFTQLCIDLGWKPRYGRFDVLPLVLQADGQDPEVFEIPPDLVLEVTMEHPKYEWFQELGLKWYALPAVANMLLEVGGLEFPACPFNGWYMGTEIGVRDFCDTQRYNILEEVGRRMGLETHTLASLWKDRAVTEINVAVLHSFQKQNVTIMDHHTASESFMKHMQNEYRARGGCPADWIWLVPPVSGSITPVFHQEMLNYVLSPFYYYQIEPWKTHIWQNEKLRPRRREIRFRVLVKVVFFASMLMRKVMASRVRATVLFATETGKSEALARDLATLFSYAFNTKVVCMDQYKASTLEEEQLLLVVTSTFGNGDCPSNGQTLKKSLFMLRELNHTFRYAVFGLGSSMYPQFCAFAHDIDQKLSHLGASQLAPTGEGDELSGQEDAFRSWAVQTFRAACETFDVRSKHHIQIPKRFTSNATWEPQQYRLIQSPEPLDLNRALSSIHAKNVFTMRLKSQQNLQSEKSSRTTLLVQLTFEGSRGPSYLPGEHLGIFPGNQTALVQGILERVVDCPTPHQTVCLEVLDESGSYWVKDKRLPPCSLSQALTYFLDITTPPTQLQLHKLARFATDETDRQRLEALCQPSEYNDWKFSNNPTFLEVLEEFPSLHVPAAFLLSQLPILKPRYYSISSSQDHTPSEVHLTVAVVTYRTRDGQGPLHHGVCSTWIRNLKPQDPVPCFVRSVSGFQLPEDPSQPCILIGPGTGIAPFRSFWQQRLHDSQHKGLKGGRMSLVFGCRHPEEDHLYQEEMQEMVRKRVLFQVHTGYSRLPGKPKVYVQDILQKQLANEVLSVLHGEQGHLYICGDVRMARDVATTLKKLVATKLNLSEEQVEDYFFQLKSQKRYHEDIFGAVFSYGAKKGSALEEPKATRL
Parameters: species or system Escherichia coli
Conditions: not given

Compound | IC50
O=c1[nH]c(=O)n([C@H]2C[C@H](O)[C@@H](CO)O2)cc1F [FLOXURIDINE] | Not Active
COC(=O)Nc1nc2cc(C(=O)c3ccc(F)cc3)ccc2[nH]1 [FLUBENDAZOLE] | Not Active
CC(=O)OCC(=O)[C@@]1(O)CC[C@H]2[C@@H]3CCC4=CC(=O)CC[C@]4(C)[C@@]3(F)[C@@H](O)C[C@@]21C [FLUDROCORTISONE ACETATE] | Not Active
CCOC(=O)c1ncn2c1CN(C)C(=O)c1cc(F)ccc1-2 [FLUMAZENIL] | Not Active
CC(=O)OCC(=O)[C@@]12OC(C)(C)O[C@@H]1C[C@H]1[C@@H]3C[C@H](F)C4=CC(=O)C=C[C@]4(C)[C@@]3(F)[C@@H](O)C[C@@]12C [FLUOCINONIDE] | Not Active
